Assay results reported in patent publication US20140194498A1, “POLYISOPRENYLATED TETRACYCLIC XANTHONE WITH ANTICANCER ACTIVITY” (Hong Kong Baptist University, priority 2013, published 2014).
Entries after “also recorded” stand apart in the source; their conditions may differ. Like-named read-outs stand apart in the source and are kept apart here.

Key:
[1] = test system: SMMC-7721 (human hepatocellular carcinoma); experiment: cells
Procedure: (§1) To determine the cytotoxicity of garciesculentone B, its IC50 values on HepG2, SMMC-7721, MCF-7, and MDA-MB-231 cell lines are measured. […] In addition, further study is taken to test whether garciesculentone B can exert effects on cell motility. A wound healing assay using ECA109 cells is performed in this regard.
(§2) Cytotoxicity Assay. Cytotoxic activitiy of garciesculentone B were evaluated by MTT assay using SMMC-7721 (human hepatocellular carcinoma), HepG2 (human hepatocellular carcinoma), MCF-7 (human breast adenocarcinoma), and MDA-MB-231 (human breast adenocarcinoma). Paclitaxel was used as positive control. The detailed methodology for cytotoxicity assay has already been described in Xia, Z.-X.; Zhang, D.-D.; Liang, S.; Lao, Y.-Z.; Zhang, H.; Tan, H.-S.; Chen, S.-L.; Wang, X.-H.; Xu, H.-X., Bioassay-Guided Isolation of Prenylated Xanthones and Polycyclic Acylphloroglucinols from the Leaves of Garcinia nujiangensis. Journal of Natural Products 2012.

[2] = test system: human esophageal carcinoma (ECA109) cells; experiment: Wound healing assay; type: cell-based
Procedure: Wound healing assay. A wound healing assay was performed by using a modified procedure described previously in Jones, J. I.; Gockerman, A.; Busby, W. H., Jr.; Wright, G.; Clemmons, D. R., Insulin-like growth factor binding protein 1 stimulates cell migration and binds to the alpha 5 beta 1 integrin by means of its Arg-Gly-Asp sequence. Proc Natl Acad Sci USA 1993, 90 (22), 10553-7. Briefly, cells were plated in 24 wells plate at 70% confluence in conditioned medium. 24 hours after seeding the monolayers were wounded by scoring with a sterile plastic 20 μL micropipette tip, then rinsed several times with media to remove cell debris and then incubated in completed medium in the absence or presence of tested compounds (10 and 20 μg/mL) for various periods of time up to 36 hours. Cell migration into the wound surface was monitored by Olympus IX71 microscopy and digitally photographed.

[3] = test system: MDA-MB-231 (human breast adenocarcinoma); type: cell-based
Excerpt: (§3) Cytotoxicity Assay. […] Paclitaxel was used as positive control. […] Journal of Natural Products 2012.

[4] = test system: MCF-7 (human breast adenocarcinoma); type: cell-based
Excerpt: as §3

[5] = test system: HepG2 (human hepatocellular carcinoma)
Procedure: as §1, §2

IC50 [3] [µM]	IC50 [4] [µM]	IC50 [1] [µM]	IC50 [5] [µM]	Molecule	IC50 ([1]; Homo sapiens, SMMC-7721, read-out: Cytotoxicity IC50, SMMC-7721) [µM]	Cell migration into the wound area (antimigration effect) ([2]; 10 and 20 μg/mL)	Wound closure ([2]; up to 36 hours, control wound edges indistinguishable by 36 hours)
				CC(=O)O[C@H]1C(=O)[C@@]2(C)[C@H]([C@H](OC(=O)c3ccccc3)[C@]3(O)C[C@H](OC(=O)[C@H](O)[C@@H](NC(=O)c4ccccc4)c4ccccc4)C(C)=C1C3(C)C)[C@]1(OC(C)=O)CO[C@@H]1C[C@@H]2O [Palcitaxel, Paclitaxel, reference compound]	0.0091		
33.9	23.7	11.8	31.4	garciesculentone B		significant delay in cells moving into the wound area; also recorded: shows antimigration effect on ECA109 cells	do not migrate into and completely close the wound
